Test results taken from PubChem BioAssay (NCI).
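Assay format: 96-well plates, 48-hour exposure. The concentration for 50% growth inhibition is given as GI50. The concentration for full growth arrest is given as TGI.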

Assays:
Assay in all cases: NCI anticancer screen, dose series, 48 h
[1] = tested on: HCT-116 colon
[2] = tested on: HOP-92 NSCLC
[3] = tested on: IGROV1 ovarian
[4] = tested on: MCF7 breast
[5] = tested on: OVCAR-3 ovarian
[6] = tested on: OVCAR-4 ovarian
[7] = tested on: OVCAR-8 ovarian
[8] = tested on: SK-MEL-2 melanoma
[9] = tested on: UACC-257 melanoma
[10] = tested on: UO-31 renal

`O=C1CCCCN1c1ccccc1C#C/C=C\C#Cc1ccccc1C(F)(F)F` showed a GI50 [1] of 1.01 µM, a TGI [1] of 2.59 µM and a GI50 [2] of 10.7 µM. For the same molecule, the TGI [2] was 43.1 µM, the GI50 [3] was 1.12 µM and the TGI [3] was 3.63 µM. The GI50 [4] was 2.5 µM, the TGI [4] was > 50 µM and the GI50 [5] was 0.879 µM. The TGI [5] was 2.4 µM, the GI50 [6] was 3.6 µM and the TGI [6] was 19.1 µM. The GI50 [7] was 1.49 µM, the TGI [7] was 5.64 µM and the GI50 [8] was 7.26 µM. For the same molecule, the TGI [8] was > 50 µM, the GI50 [9] was 2.72 µM and the TGI [9] was 18.3 µM. For the same molecule, the GI50 [10] was 2 µM and the TGI [10] was 13.6 µM.
With `COCCOc1ccc(-c2nc3ccc(-c4nc5ccc(N6CCN(C)CC6)cc5[nH]4)cc3[nH]2)cc1` the GI50 [1] was 0.358 µM, the TGI [1] was 2.46 µM and the GI50 [2] was 2.16 µM. The TGI [2] was 9.71 µM, the GI50 [3] was 1.71 µM and the TGI [3] was 4.81 µM. For the same molecule, the GI50 [4] was 0.316 µM, the TGI [4] was 11.8 µM and the GI50 [5] was 0.621 µM. The TGI [5] was 3.13 µM, the GI50 [6] was 0.313 µM and the TGI [6] was 3 µM. It also gave a GI50 [7] of 0.931 µM, a TGI [7] of 23.4 µM and a GI50 [8] of 1.64 µM. It also gave a TGI [8] of 3.59 µM, a GI50 [9] of 1.71 µM and a TGI [9] of 5.92 µM. For the same molecule, the GI50 [10] was 29.4 µM and the TGI [10] was > 100 µM.
With `Cc1csc(-c2nnc(Nc3ccc(Oc4ncccc4-c4ccnc(N)n4)cc3)c3ccccc23)c1` the GI50 [1] was 1.89 µM, the TGI [1] was > 100 µM and the GI50 [2] was > 100 µM. The TGI [2] was > 100 µM, the GI50 [3] was 3.35 µM and the TGI [3] was > 100 µM. For the same molecule, the GI50 [4] was 0.13 µM, the TGI [4] was > 100 µM and the TGI [5] was > 100 µM. The GI50 [6] was 6.59 µM, the TGI [6] was > 100 µM and the TGI [7] was > 100 µM. For the same molecule, the GI50 [8] was 2.71 µM, the TGI [8] was > 26.9 µM and the TGI [9] was > 100 µM. For the same molecule, the TGI [10] was > 100 µM.
